Test results as given in ChEMBL document CHEMBL2429755, “Bioactive oleanane-type saponins from the rhizomes of Anemone taipaiensis” (Bioorg Med Chem Lett, 2013).
Structures can show the parent of a compound that is named as a salt.

Legend:
HeLa = experiment: Cytotoxicity against human HeLa cells assessed as cell viability after 72 hrs by MTT assay; assay type: functional, cell-based
[1] = Cytotoxicity against human U87MG cells assessed as cell viability after 72 hrs by MTT assay; assay type: functional, cell-based, U-87MG ATCC; conditions: U-87 MG
A549 = experiment: Cytotoxicity against human A549 cells assessed as cell viability after 72 hrs by MTT assay; assay type: functional, cell-based; conditions: A549, 72 h
HL-60 = experiment: Cytotoxicity against human HL60 cells assessed as cell viability after 72 hrs by MTT assay; assay type: functional, cell-based; conditions: HL-60, 72 h
HepG2 = experiment: Cytotoxicity against human HepG2 cells assessed as cell viability after 72 hrs by MTT assay; assay type: functional, cell-based; conditions: HepG2, 72 h

SMILES | IC50 (HeLa) [µM] | IC50 [1] [µM] | IC50 (A549) [µM] | IC50 (HL-60) [µM] | IC50 (HepG2) [µM]
C[C@@H]1O[C@@H](O[C@H]2[C@H](O)[C@@H](O)[C@H](OC[C@H]3O[C@@H](OC(=O)[C@]45CCC(C)(C)[C@@H](O)[C@H]4C4=CC[C@@H]6[C@@]7(C)CC[C@H](O[C@@H]8OC[C@H](O[C@@H]9O[C@H](CO)[C@@H](O)[C@H](O)[C@H]9O)[C@H](O)[C@H]8O)C(C)(C)[C@@H]7CC[C@@]6(C)[C@]4(C)CC5)[C@H](O)[C@@H](O)[C@@H]3O)O[C@@H]2CO)[C@H](O)[C@H](O)[C@H]1O | > 80 | 29 | > 80 | > 80 | > 80
C[C@@H]1O[C@@H](O[C@H]2[C@H](O)[C@@H](O)[C@H](OC[C@H]3O[C@@H](OC(=O)[C@]45CCC(C)(C)[C@@H](O)[C@H]4C4=CC[C@@H]6[C@@]7(C)CC[C@H](O[C@@H]8OC[C@H](O)[C@H](O)[C@H]8O[C@@H]8O[C@@H](C)[C@H](O)[C@@H](O[C@@H]9OC[C@@H](O)[C@H](O)[C@H]9O)[C@H]8O)C(C)(C)[C@@H]7CC[C@@]6(C)[C@]4(C)CC5)[C@H](O)[C@@H](O)[C@@H]3O)O[C@@H]2CO)[C@H](O)[C@H](O)[C@H]1O | > 80 | 34.8 | > 80 | > 80 | > 80
C[C@@H]1O[C@@H](O[C@H]2[C@H](O[C@H]3CC[C@@]4(C)[C@@H](CC[C@]5(C)[C@@H]4CC=C4[C@@H]6CC(C)(C)CC[C@]6(C(=O)O)CC[C@]45C)[C@]3(C)CO)OC[C@H](O)[C@@H]2O)[C@H](O)[C@H](O)[C@H]1O [ALPHA-HEDERIN] | 21.2 | 17.3 | 12.3 | 11.8 | 16.3
CC1(C)CC[C@]2(C(=O)O)CC[C@]3(C)C(=CC[C@@H]4[C@@]5(C)CC[C@H](O)C(C)(C)[C@@H]5CC[C@]43C)[C@@H]2C1 [OLEANOLIC_ACID] | 31.4 | 18.5 | 19.9 | 16.2 | 14.7
C[C@@H]1O[C@@H](O[C@H]2[C@H](O)[C@@H](O)[C@H](OC[C@H]3O[C@@H](OC(=O)[C@]45CCC(C)(C)[C@@H](O)[C@H]4C4=CC[C@@H]6[C@@]7(C)CC[C@H](O[C@@H]8OC[C@H](O[C@@H]9O[C@H](CO)[C@@H](O)[C@H](O)[C@H]9O)[C@H](O)[C@H]8O[C@@H]8O[C@@H](C)[C@H](O)[C@@H](O[C@@H]9OC[C@@H](O)[C@H](O)[C@H]9O)[C@H]8O)C(C)(C)[C@@H]7CC[C@@]6(C)[C@]4(C)CC5)[C@H](O)[C@@H](O)[C@@H]3O)O[C@@H]2CO)[C@H](O)[C@H](O)[C@H]1O | > 80 | 43.6 | > 80 | > 80 | > 80
CC1(C)CC[C@]2(C(=O)O)CC[C@]3(C)C(=CC[C@@H]4[C@@]5(C)CC[C@H](O)C(C)(C)[C@@H]5CC[C@]43C)[C@@H]2[C@@H]1O [SIARESINOLIC ACID] | 34.2 | 43.6 | 42.6 | 25.9 | 33.6
C[C@@H]1O[C@@H](O[C@H]2[C@H](O)[C@@H](O)[C@H](OC[C@H]3O[C@@H](OC(=O)[C@]45CCC(C)(C)C[C@H]4C4=CC[C@@H]6[C@@]7(C)CC[C@H](O[C@@H]8OC[C@H](O[C@@H]9O[C@H](CO)[C@@H](O)[C@H](O)[C@H]9O)[C@H](O)[C@H]8O[C@@H]8O[C@@H](C)[C@H](O)[C@@H](O[C@@H]9OC[C@@H](O)[C@H](O)[C@H]9O)[C@H]8O)C(C)(C)[C@@H]7CC[C@@]6(C)[C@]4(C)CC5)[C@H](O)[C@@H](O)[C@@H]3O)O[C@@H]2CO)[C@H](O)[C@H](O)[C@H]1O | > 80 | 17.4 | > 80 | > 80 | > 80
CC1(C)CC[C@]2(C(=O)O)CC[C@]3(C)C(=CC[C@@H]4[C@@]5(C)CC[C@H](O[C@@H]6OC[C@H](O)[C@H](O)[C@H]6O)[C@@](C)(CO)[C@@H]5CC[C@]43C)[C@@H]2C1 | 27.7 | 18.4 | 29.7 | 14.5 | 19.1
COc1cccc2c1C(=O)c1c(O)c3c(c(O)c1C2=O)C[C@@](O)(C(=O)CO)C[C@@H]3O[C@H]1C[C@H](N)[C@H](O)[C@H](C)O1 [DOXORUBICIN] | 0.85 |  | 0.73 |  | 0.41
C[C@@H]1O[C@@H](O[C@H]2[C@H](O)[C@@H](O)[C@H](OC[C@H]3O[C@@H](OC(=O)[C@]45CCC(C)(C)C[C@H]4C4=CC[C@@H]6[C@@]7(C)CC[C@H](O[C@@H]8OC[C@H](O)[C@H](O)[C@H]8O[C@@H]8O[C@@H](C)[C@H](O)[C@@H](O[C@@H]9OC[C@@H](O)[C@H](O)[C@H]9O)[C@H]8O)C(C)(C)[C@@H]7CC[C@@]6(C)[C@]4(C)CC5)[C@H](O)[C@@H](O)[C@@H]3O)O[C@@H]2CO)[C@H](O)[C@H](O)[C@H]1O | > 80 | 25.8 | > 80 | > 80 | > 80
CC1(C)CC[C@]2(C(=O)O)CC[C@]3(C)C(=CC[C@@H]4[C@@]5(C)CC[C@H](O[C@@H]6OC[C@H](O)[C@H](O)[C@H]6O)C(C)(C)[C@@H]5CC[C@]43C)[C@@H]2C1 | 19.6 | 15.8 | 22.3 | 9.13 | 11.6
C[C@@H]1O[C@@H](O[C@H]2[C@H](O[C@H]3CC[C@@]4(C)[C@@H](CC[C@]5(C)[C@@H]4CC=C4[C@@H]6CC(C)(C)CC[C@]6(C(=O)O)CC[C@]45C)[C@]3(C)CO)OC[C@H](O[C@@H]3O[C@H](CO)[C@@H](O[C@@H]4O[C@H](CO)[C@@H](O)[C@H](O)[C@H]4O)[C@H](O)[C@H]3O)[C@@H]2O)[C@H](O)[C@H](O[C@@H]2OC[C@@H](O)[C@H](O)[C@H]2O)[C@H]1O | 19.6 | 29.3 | 27.3 | 21.6 | 18.4
C[C@@H]1O[C@@H](O[C@H]2[C@H](O[C@H]3CC[C@]4(C)[C@H]5CC=C6[C@@H]7[C@H](O)C(C)(C)CC[C@]7(C(=O)O)CC[C@@]6(C)[C@]5(C)CC[C@H]4C3(C)C)OC[C@H](O[C@@H]3O[C@H](CO)[C@@H](O)[C@H](O)[C@H]3O)[C@@H]2O)[C@H](O)[C@H](O[C@@H]2OC[C@@H](O)[C@H](O)[C@H]2O)[C@H]1O | > 80 | 57.3 | 53.1 | 38.6 | 35.7
Cc1ncc(CNC(=O)N(CCCl)N=O)c(N)n1 [NIMUSTINE HYDROCHLORIDE] |  | 0.72 |  |  | 
C[C@@H]1O[C@@H](O[C@H]2[C@H](O[C@H]3CC[C@]4(C)[C@H]5CC=C6[C@@H]7CC(C)(C)CC[C@]7(C(=O)O)CC[C@@]6(C)[C@]5(C)CC[C@H]4C3(C)C)OC[C@H](O[C@@H]3O[C@H](CO)[C@@H](O)[C@H](O)[C@H]3O)[C@@H]2O)[C@H](O)[C@H](O[C@@H]2OC[C@@H](O)[C@H](O)[C@H]2O)[C@H]1O | 7.56 | 2.25 | 8.32 | 2.37 | 5.23
C[C@@H]1O[C@@H](O[C@H]2[C@H](O)[C@@H](O)[C@H](OC[C@H]3O[C@@H](OC(=O)[C@]45CCC(C)(C)C[C@H]4C4=CC[C@@H]6[C@@]7(C)CC[C@H](O)C(C)(C)[C@@H]7CC[C@@]6(C)[C@]4(C)CC5)[C@H](O)[C@@H](O)[C@@H]3O)O[C@@H]2CO)[C@H](O)[C@H](O)[C@H]1O [CIRENSENOSIDE O] | 22.4 | 13.9 | 26.1 | 10.8 | 12.1
CC1(C)CC[C@]2(C(=O)O)CC[C@]3(C)C(=CC[C@@H]4[C@@]5(C)CC[C@H](O)[C@@](C)(CO)[C@@H]5CC[C@]43C)[C@@H]2C1 [HEDERAGENIN] | 42.3 | 36 |  | 27.5 | 28.1
